# Measured values from patent US20100184603A1, “Alcohol alkoxylates, compositions containing these, and use of the alcohol alkoxylates as adjuvants for the agrochemical field” (BASF SE, priority 2007, published 2010).
# Test system: leaf rust of wheat "Puccinia recondita"
# Assay: Biotest: curative control of leaf rust of wheat
# Format: in vivo
# Details: wheat seedlings "Kanzler", curative spray 2 days after inoculation; 50 ppm epoxiconazole without adjuvant; disease percent of total leaf area after 10 days
# Protocol: 125 g/l epoxiconazole were ground together with in each case 20 g/l dispersant (Atlas G 5000^1, Synperonic A^1) and 50 g/l propylene glycol in aqueous medium in a stirred-ball mill (dyno-mill) until a particle size of 80%<2 μm was reached. To the mixture were added 3 g/l per liter antifoam, for example Rhodorsil 426^2, 3 g/l thickener, for example Rhodopol 23^2, and a biocide, for example Acticide MBS^3. The respective adjuvant, in aqueous solution or in a solvent, for example Solvesso, was stirred into this mixture, so that the final concentration of the formulation is composed of 62.5 g/l epoxiconazole and 125 g/l adjuvant. ^1Uniquema/Croda^2Rhodia^3Thor Chemie
# Biotest (Curative Control of Leaf Rust of Wheat):
# Leaves of wheat seedlings of the species “Kanzler” which had been grown in pots were dusted, in the two-leaf stage, with spores of leaf rust of wheat “Puccinia recondita” and incubated for 2 days in the greenhouse at high atmospheric humidity. In fully automated spray cabins, the plants were then sprayed with the formulations which comprised the active ingredients and adjuvants specified hereinbelow. The spray mixtures comprised 50 ppm epoxiconazole and 100 ppm adjuvant. […] After 10 days, the extent of the leaf rust disease was determined visually as disease percent of the total leaf area. 3 pots were evaluated for each combination.
smiles,measurement,value
Fc1ccc([C@]2(Cn3cncn3)O[C@H]2c2ccccc2Cl)cc1 (racemic) [Epoxiconazole],% infection,40%
